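Interpolation was linear, between the two tested concentrations surrounding the appropriate level; five concentrations were tested over 48 hours in 96-well plates. Abbreviation: GI50, concentration required for 50% inhibition of growth. Definition used: TGI = concentration required for complete inhibition of growth.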
Tests used:
Assay in all cases: growth of human tumour cells (NCI), 48 h
[1] = tested on: UACC-62 melanoma
[2] = tested on: UACC-257 melanoma
[3] = tested on: T-47D breast
[4] = tested on: KM12 colon
[5] = tested on: OVCAR-5 ovarian
[6] = tested on: OVCAR-4 ovarian
[7] = tested on: CCRF-CEM leukemia
[8] = tested on: MDA-N
[9] = tested on: HT29 colon
[10] = tested on: SK-OV-3 ovarian
[11] = tested on: PC-3 prostate
[12] = tested on: SN12C renal
[13] = tested on: M14 melanoma
[14] = tested on: OVCAR-8 ovarian
[15] = tested on: CAKI-1 renal
[16] = tested on: SW-620 colon
[17] = tested on: NCI-H460 lung
[18] = tested on: SNB-19 CNS
[19] = tested on: SF-295 CNS
[20] = tested on: SF-268 CNS
[21] = tested on: HCT-116 colon
[22] = tested on: NCI/ADR-RES ovarian
[23] = tested on: 786-0 renal
[24] = tested on: TK-10 renal
[25] = tested on: HCT-15 colon
[26] = tested on: LOX IMVI melanoma
[27] = tested on: SR leukemia
[28] = tested on: A549 NSCLC
[29] = tested on: NCI-H23 lung
[30] = tested on: A498 renal
[31] = tested on: EKVX NSCLC
[32] = tested on: MDA-MB-435
[33] = tested on: HS 578T breast
[34] = tested on: ACHN renal
[35] = tested on: U251 CNS
[36] = tested on: SK-MEL-28 melanoma
[37] = tested on: HL-60(TB) leukemia
[38] = tested on: HCC-2998 colon
[39] = tested on: MALME-3M melanoma
[40] = tested on: MCF7 breast
[41] = tested on: SF-539 CNS
[42] = tested on: SK-MEL-5 melanoma
[43] = tested on: HOP-92 NSCLC
[44] = tested on: NCI-H226 lung
[45] = tested on: MOLT-4 leukemia
[46] = tested on: OVCAR-3 ovarian
[47] = tested on: DU-145 prostate
[48] = tested on: RXF 393 renal
[49] = tested on: K-562 leukemia
[50] = tested on: MDA-MB-231 breast
[51] = tested on: HOP-62 NSCLC
[52] = tested on: IGROV1 ovarian
[53] = tested on: COLO 205 colon
[54] = tested on: UO-31 renal
[55] = tested on: NCI-H522 lung
[56] = tested on: SK-MEL-2 melanoma
[57] = tested on: RPMI-8226 leukemia
[58] = tested on: SNB-75 CNS

COC(=O)C1(CCCCCBr)CCCCCCCCCCC1=O (stereo unspecified)
TGI [1]: > 100 µM
TGI [2]: 70.2 µM
TGI [3]: > 100 µM
TGI [4]: > 100 µM
TGI [5]: > 100 µM
TGI [6]: > 100 µM
TGI [7]: 45 µM
TGI [8]: > 100 µM
TGI [9]: > 100 µM
TGI [10]: > 100 µM
TGI [11]: > 100 µM
TGI [12]: > 100 µM
TGI [13]: > 100 µM
TGI [14]: > 100 µM
TGI [15]: 53.9 µM
TGI [16]: > 100 µM
TGI [17]: > 100 µM
TGI [18]: > 100 µM
TGI [19]: > 100 µM
TGI [20]: > 100 µM
TGI [21]: > 100 µM
TGI [22]: > 100 µM
TGI [23]: > 100 µM
TGI [24]: > 100 µM
TGI [25]: > 100 µM
TGI [26]: 63.3 µM
TGI [27]: 55.7 µM
TGI [28]: > 100 µM
TGI [29]: > 100 µM
TGI [30]: 64.7 µM
TGI [31]: > 100 µM
TGI [32]: 87.5 µM
TGI [33]: > 100 µM
TGI [34]: > 100 µM
TGI [35]: > 100 µM
TGI [36]: 92.2 µM
TGI [37]: 49.9 µM
TGI [38]: > 100 µM
TGI [39]: 47.6 µM
TGI [40]: 42.2 µM
TGI [41]: > 100 µM
TGI [42]: 35.1 µM
TGI [43]: > 100 µM
TGI [44]: 66.6 µM
TGI [45]: 35.6 µM
TGI [46]: > 100 µM
TGI [47]: > 100 µM
TGI [48]: 51.9 µM
TGI [49]: > 100 µM
TGI [50]: 84.6 µM
TGI [51]: > 100 µM
TGI [52]: 87.2 µM
TGI [53]: > 100 µM
TGI [54]: 31.8 µM
TGI [55]: 47.5 µM
TGI [56]: 70.1 µM

COC(=O)c1nc(Cl)nc(Cl)c1Cl
TGI [3]: 54.2 µM
TGI [57]: 63.6 µM
TGI [4]: 47.3 µM
TGI [5]: 52.3 µM
TGI [6]: 41 µM
TGI [7]: 27.7 µM
TGI [8]: 76.8 µM
TGI [58]: > 100 µM
TGI [9]: 50.2 µM
TGI [10]: > 100 µM
TGI [11]: 34.9 µM
TGI [12]: 45.1 µM
TGI [13]: 38.3 µM
TGI [14]: 54.5 µM
TGI [15]: 32.1 µM
TGI [16]: 38.5 µM
TGI [17]: > 100 µM
TGI [18]: > 100 µM
TGI [19]: > 100 µM
TGI [20]: > 100 µM
TGI [21]: 33.2 µM
TGI [22]: > 100 µM
TGI [23]: 33.1 µM
TGI [24]: 47.8 µM
TGI [25]: 46.9 µM
TGI [26]: 29.6 µM
TGI [27]: 58.7 µM
TGI [28]: > 100 µM
TGI [29]: > 100 µM
TGI [32]: 29.3 µM
TGI [33]: 85 µM
TGI [34]: 27.7 µM
TGI [35]: > 100 µM
TGI [36]: 56.9 µM
TGI [38]: 68.3 µM
TGI [39]: 45.9 µM
TGI [40]: 55.1 µM
TGI [41]: 75.3 µM
TGI [42]: 35.1 µM
TGI [43]: 42.9 µM
TGI [44]: 64.4 µM
TGI [45]: 32.9 µM
TGI [46]: 16.8 µM
TGI [47]: > 100 µM
TGI [48]: 28.2 µM
TGI [49]: 31.9 µM
TGI [50]: 42.9 µM
TGI [51]: > 100 µM
TGI [52]: 66 µM
TGI [53]: 36 µM
TGI [54]: 35.7 µM
TGI [55]: 36.5 µM

NC(N)=NCCC1OC(=O)C2=C1c1c(O)ccc3nccc(c13)O2 (stereo unspecified)
GI50 [1]: > 100 µM
TGI [1]: > 100 µM
GI50 [2]: 1.73 µM
TGI [2]: > 100 µM
GI50 [3]: 95.1 µM
TGI [3]: > 100 µM
GI50 [57]: > 100 µM
TGI [57]: > 100 µM
GI50 [4]: > 100 µM
TGI [4]: > 100 µM
GI50 [5]: > 100 µM
TGI [5]: > 100 µM
GI50 [7]: > 100 µM
TGI [7]: > 100 µM
GI50 [8]: > 100 µM
TGI [8]: > 100 µM
GI50 [10]: > 100 µM
TGI [10]: > 100 µM
GI50 [11]: > 100 µM
TGI [11]: > 100 µM
GI50 [12]: > 100 µM
TGI [12]: > 100 µM
GI50 [13]: > 100 µM
TGI [13]: > 100 µM
GI50 [14]: > 100 µM
TGI [14]: > 100 µM
GI50 [15]: > 100 µM
TGI [15]: > 100 µM
GI50 [16]: > 100 µM
TGI [16]: > 100 µM
GI50 [17]: > 100 µM
TGI [17]: > 100 µM
GI50 [18]: 50.5 µM
TGI [18]: > 100 µM
GI50 [19]: > 100 µM
TGI [19]: > 100 µM
GI50 [20]: 23.8 µM
TGI [20]: > 100 µM
GI50 [21]: > 100 µM
TGI [21]: > 100 µM
GI50 [22]: > 100 µM
TGI [22]: > 100 µM
GI50 [23]: > 100 µM
TGI [23]: > 100 µM
GI50 [24]: > 100 µM
TGI [24]: > 100 µM
GI50 [25]: > 100 µM
TGI [25]: > 100 µM
GI50 [26]: > 100 µM
TGI [26]: > 100 µM
GI50 [27]: > 100 µM
TGI [27]: > 100 µM
GI50 [28]: > 100 µM
TGI [28]: > 100 µM
GI50 [29]: > 100 µM
TGI [29]: > 100 µM
GI50 [30]: > 100 µM
TGI [30]: > 100 µM
GI50 [31]: > 100 µM
TGI [31]: > 100 µM
GI50 [32]: > 100 µM
TGI [32]: > 100 µM
GI50 [33]: > 100 µM
TGI [33]: > 100 µM
GI50 [34]: > 100 µM
TGI [34]: > 100 µM
GI50 [35]: 56.7 µM
TGI [35]: > 100 µM
GI50 [36]: > 100 µM
TGI [36]: > 100 µM
GI50 [37]: > 100 µM
TGI [37]: > 100 µM
GI50 [38]: > 100 µM
TGI [38]: > 100 µM
GI50 [39]: > 100 µM
TGI [39]: > 100 µM
GI50 [40]: > 100 µM
TGI [40]: > 100 µM
GI50 [41]: > 100 µM
TGI [41]: > 100 µM
GI50 [42]: 62.1 µM
TGI [42]: > 100 µM
GI50 [44]: 89.9 µM
TGI [44]: > 100 µM
GI50 [45]: > 100 µM
TGI [45]: > 100 µM
GI50 [46]: > 100 µM
TGI [46]: > 100 µM
GI50 [47]: > 100 µM
TGI [47]: > 100 µM
GI50 [48]: > 100 µM
TGI [48]: > 100 µM
GI50 [49]: > 100 µM
TGI [49]: > 100 µM
GI50 [50]: > 100 µM
TGI [50]: > 100 µM
GI50 [51]: > 100 µM
TGI [51]: > 100 µM
GI50 [52]: > 100 µM
TGI [52]: > 100 µM
GI50 [53]: > 100 µM
TGI [53]: > 100 µM
GI50 [54]: > 100 µM
TGI [54]: > 100 µM
GI50 [55]: > 100 µM
TGI [55]: > 100 µM
GI50 [56]: > 100 µM
TGI [56]: > 100 µM

Source: PubChem BioAssay (NCI)
